This series is described as follows: Oral sugar intestinal permeability assay (urinary sugar excretion by gas chromatography). The format is in vivo, human. The note with it: oral sugar mixture with 1 gram sucralose after overnight fast, 24 h urine. An excerpt: In an example of a protocol used to validate the instant invention, patients with clinically diagnosed PD not yet requiring dopaminergic therapy were recruited under a clinical protocol (FIG. 1 and Table 1). […] Constipation was defined as fewer than 3 bowel movements per week or if the subject complained of constipation. Men and women who met United Kingdom Parkinson Disease Research Society brain bank criteria for PD, Hoehn & Yahr stage 1-2.5 were included. Subjects were excluded based on the following: atypical or secondary Parkinsonism, any known organic gastrointestinal disease, use of drugs affecting gastrointestinal motility, anti-inflammatory agents, and chronic diuretic use. Control subjects were of similar age and gender that had no GI or neurological symptoms or signs (determined by examination by a board certified neurologist with expertise in movement disorders) and were not taking regular medication or anti-inflammatory agents.
Subjects fasted overnight and subsequently ingested a sugar mixture containing 2 grams mannitol, 7.5 grams lactulose, 40 grams sucrose, and 1 gram sucralose at 6 AM, then collected 2 sequential 12-hour urine samples. Urine was analyzed for sugar content using gas chromatography (GC) techniques as described herein. […] The final residue is dissolved in 0.5 ml acetone and the sample is ready for analysis. […]

The structures appear in SMILES notation.

In the case of `OC[C@H]1O[C@H](O[C@]2(CCl)O[C@H](CCl)[C@@H](O)[C@@H]2O)[C@H](O)[C@@H](O)[C@H]1Cl` [sucralose], the “mean 24 h urinary sucralose (marker of total intestinal permeability)” value was 1.12±0.1% of oral dose (PD subjects) and 0.58±0.1% of oral dose (age matched controls).

The values are drawn from patent US20140147856A1, “Intestinal Permeability Assay for Neurodegenerative Diseases” (Rush University Medical Center, priority 2012, published 2014).
